Data on 17 compounds can be found in ChEMBL document CHEMBL6182884, “Synthesis and structure-activity evaluation of a series of novel tricyclic STING activators” (Eur J Med Chem, 2025).

What is called EC50 is the concentration giving half of the maximal effect.

Stimulator of interferon genes protein, sequence (Q86WV6 whole entry, looked up): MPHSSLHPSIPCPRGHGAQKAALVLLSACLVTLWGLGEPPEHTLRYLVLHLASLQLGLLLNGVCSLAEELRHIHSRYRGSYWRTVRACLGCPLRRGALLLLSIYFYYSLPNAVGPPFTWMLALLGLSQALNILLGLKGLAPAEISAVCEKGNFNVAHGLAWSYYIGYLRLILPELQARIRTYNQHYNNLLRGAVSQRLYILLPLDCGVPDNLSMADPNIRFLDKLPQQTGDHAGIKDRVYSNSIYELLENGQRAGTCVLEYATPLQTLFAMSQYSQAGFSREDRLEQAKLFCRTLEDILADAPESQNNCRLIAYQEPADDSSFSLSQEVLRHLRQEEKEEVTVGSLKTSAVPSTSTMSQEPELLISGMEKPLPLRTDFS

The assay concerns the target Stimulator of interferon genes protein (Homo sapiens, UniProt Q86WV6). Description: Activation of human STING R232 variant transfected in HEK293T cells expressing ISRE.ISG54 luciferase reporter assessed as secretory reporter gene activity by measuring luciferase level incubated for 20 hrs by luminometer. In kind it is cell-based. (A reporter such as luciferase makes a cellular process visible.)
`CC1Sc2ccc(C(=O)NCc3c(F)cc(F)cc3F)cc2-n2c(-c3ccncc3)nnc21` (racemic): the EC50 came to 1630 nM. In the case of `CC1Sc2ccc(C(=O)NCc3cc4cc(F)c(F)cc4o3)cc2-n2c(-c3ccc(F)cc3)nnc21` (racemic) it was 45 nM; in that of `CC1Sc2ncc(C(=O)NCc3cc4ccccc4o3)cc2-n2c(-c3ccccc3)nnc21` (racemic), 414 nM. `Cc1ccc(-c2nnc3n2-c2cc(C(=O)NCc4c(F)cc(F)cc4F)ccc2SC3C)cc1` (racemic): the concentration for a half-maximal effect (EC50) came to 3810 nM.

As for `CC1Sc2ncc(C(=O)NCc3cc4cc(F)ccc4o3)cc2-n2c(-c3ccc(F)cc3)nnc21` (racemic), the EC50 was determined as 111 nM.

As to `CC1Sc2ccc(C(=O)NCc3cc4cc(F)ccc4o3)cc2-n2c(-c3ccc(F)cc3F)nnc21` (racemic), the EC50 came out at 53 nM.

Regarding `C[C@H]1Sc2ccc(C(=O)NCc3cc4cc(F)ccc4o3)cc2-n2c(-c3ccc(F)cc3)nnc21`, the concentration giving a half-maximal response (EC50) amounted to 1090 nM.

Consider `C[C@@H]1Sc2ccc(C(=O)NCc3cc4cc(F)ccc4o3)cc2-n2c(-c3ccc(F)cc3)nnc21`, for which the half-maximal effective concentration (EC50) was 40 nM. Next, `Cc1cccc(-c2nnc3n2-c2cc(C(=O)NCc4c(F)cc(F)cc4F)ccc2SC3C)c1` (racemic): 1560 nM; `O=C(NCc1c(F)cc(F)cc1F)c1ccc2c(c1)-n1c(nnc1-c1ccccc1)CS2`: 2080 nM. In the case of `CC1Sc2ccc(C(=O)NCc3c(F)cc(F)cc3F)cc2-n2c(-c3cccc(F)c3)nnc21` (racemic) it was 2880 nM; in that of `CC1Sc2ccc(C(=O)NCc3cc4cc(F)ccc4o3)cc2-n2c(-c3ccc(F)cc3)nnc21` (racemic), 48 nM. As to `CC1Sc2ccc(C(=O)NCc3cc4ccc(F)cc4o3)cc2-n2c(-c3ccc(F)cc3)nnc21` (racemic), the EC50 is 65 nM.

`CC1Sc2ccc(C(=O)NCc3c(F)cc(F)cc3F)cc2-n2c(-c3ccc(F)cc3)nnc21` (racemic): the EC50 was found to be 373 nM.

For `CC1Sc2ccc(C(=O)NCc3c(F)cc(F)cc3F)cc2-n2c(Cc3ccccc3)nnc21` (racemic), the EC50 turned out to be 1540 nM. Next, `CC1Sc2ccc(C(=O)NCc3c(F)cc(F)cc3F)cc2-n2c(-c3ccccc3F)nnc21` (racemic): 804 nM. `CC1Sc2ccc(C(=O)NCc3c(F)cc(F)cc3F)cc2-n2c(-c3ccc(Cl)cc3F)nnc21` (racemic): the 50% effective concentration (EC50) was 1970 nM.
